Reference: patent publication US10597380B2, “Pyridazinone-based broad spectrum anti-influenza inhibitors” (Hoffmann-La Roche Inc., priority 2017, dated 2020)

System: Influenza A/WSN/33-Luciferase virus
Assay: microbe, parasite or virus in culture
Type: cell-based
Conditions: A549, 72 h, luciferase signal three days later, read-out: IC50 antiviral activity (Luciferase reporter assay)

Question: Which IC50 does the source give for COC(=O)CCn1cccc(Nc2nn(-c3ccc(OC(F)(F)F)cc3)c(=O)c3ccccc23)c1=O [Example 69, methyl 3-[2-oxo-3-[[4-oxo-3-[4-(trifluoromethoxy)phenyl]phthalazin-1-yl]amino]-1-pyridyl]propanoate] here?
Answer: 228 nM

Question: For CN(C)CCn1cccc(Nc2nn(-c3ccc(OC(F)(F)F)cc3)c(=O)c3ccccc23)c1=O [Example 70, 4-[[1-[2-(dimethylamino)ethyl]-2-oxo-3-pyridyl]amino]-2-[4-(trifluoromethoxy)phenyl]phthalazin-1-one], which IC50 is on record?
Answer: 19 nM

Question: For COCCn1cccc(Nc2nn(-c3ccc(OC(F)(F)F)cc3)c(=O)c3ccccc23)c1=O [Example 71, 4-[[1-(2-methoxyethyl)-2-oxo-3-pyridyl]amino]-2-[4-(trifluoromethoxy)phenyl]phthalazin-1-one], which IC50 is on record?
Answer: 54 nM

Question: CS(=O)(=O)CCn1cccc(Nc2nn(-c3ccc(OC(F)(F)F)cc3)c(=O)c3ccccc23)c1=O [Example 72, 4-[[1-(2-methylsulfonylethyl)-2-oxo-3-pyridyl]amino]-2-[4-(trifluoromethoxy)phenyl]phthalazin-1-one] was tested. Which IC50 did it give?
Answer: 24 nM

Question: Which IC50 does the source give for COC(=O)CCCn1cccc(Nc2nn(-c3ccc(OC(F)(F)F)cc3)c(=O)c3ccccc23)c1=O [Example 73, methyl 4-[2-oxo-3-[[4-oxo-3-[4-(trifluoromethoxy)phenyl]phthalazin-1-yl]amino]-1-pyridyl]butanoate] here?
Answer: 49 nM

Question: NS(=O)(=O)CCCn1cccc(Nc2nn(-c3ccc(OC(F)(F)F)cc3)c(=O)c3ccccc23)c1=O [Example 74, 3-[2-oxo-3-[[4-oxo-3-[4-(trifluoromethoxy)phenyl]phthalazin-1-yl]amino]-1-pyridyl]propane-1-sulfonamide] was tested. Which IC50 did it give?
Answer: 34 nM

Question: For CN(C)S(=O)(=O)CCCn1cccc(Nc2nn(-c3ccc(OC(F)(F)F)cc3)c(=O)c3ccccc23)c1=O [Example 75, N,N-dimethyl-3-[2-oxo-3-[[4-oxo-3-[4-(trifluoromethoxy)phenyl]phthalazin-1-yl]amino]-1-pyridyl]propane-1-sulfonamide], which IC50 is on record?
Answer: 25 nM

Question: How did the IC50 turn out when O=c1c(Nc2nn(-c3ccc(OC(F)(F)F)cc3)c(=O)c3ccccc23)cccn1CCN1CCOCC1 [Example 76, 4-[[1-(2-morpholinoethyl)-2-oxo-3-pyridyl]amino]-2-[4-(trifluoromethoxy)phenyl]phthalazin-1-one] was run?
Answer: 34 nM

Question: For O=c1c(Nc2nn(-c3ccc(OC(F)(F)F)cc3)c(=O)c3ccccc23)cccn1CCN1CC(O)(C(F)(F)F)C1 [Example 77, 4-[[1-[2-[3-hydroxy-3-(trifluoromethyl)azetidin-1-yl]ethyl]-2-oxo-3-pyridyl]amino]-2-[4-(trifluoromethoxy)phenyl]phthalazin-1-one], which IC50 is on record?
Answer: 108 nM

Question: For O=c1c(Nc2nn(-c3ccc(OC(F)(F)F)cc3)c(=O)c3ccccc23)cccn1CCN1CCC(O)C1 (stereo not drawn) [Example 78, 4-[[1-[2-(3-hydroxypyrrolidin-1-yl)ethyl]-2-oxo-3-pyridyl]amino]-2-[4-(trifluoromethoxy)phenyl]phthalazin-1-one], which IC50 is on record?
Answer: 31 nM

Question: For COC(=O)[C@@H]1CCCN1CCn1cccc(Nc2nn(-c3ccc(OC(F)(F)F)cc3)c(=O)c3ccccc23)c1=O [Example 79, methyl (2S)-1-[2-[2-oxo-3-[[4-oxo-3-[4-(trifluoromethoxy)phenyl]phthalazin-1-yl]amino]-1-pyridyl]ethyl]pyrrolidine-2-carboxylate], which IC50 is on record?
Answer: 32 nM

Question: How did the IC50 turn out when CN(C)CCn1cncc(Nc2nn(-c3ccc(OC(F)(F)F)cc3)c(=O)c3ccccc23)c1=O [Example 80, 4-[[1-[2-(dimethylamino)ethyl]-6-oxo-pyrimidin-5-yl]amino]-2-[4-(trifluoromethoxy)phenyl]phthalazin-1-one] was run?
Answer: 68 nM

Question: How did the IC50 turn out when CCc1ccc2c(=O)n(-c3ccc(OC(F)(F)F)cc3)nc(Nc3cccn(C)c3=O)c2c1 [Example 81, 6-ethyl-4-[(1-methyl-2-oxo-3-pyridyl)amino]-2-[4-(trifluoromethoxy)phenyl]phthalazin-1-one] was run?
Answer: 465 nM

Question: CCc1ccc2c(Nc3cccn(C)c3=O)nn(-c3ccc(OC(F)(F)F)cc3)c(=O)c2c1 [Example 82, 7-ethyl-4-[(1-methyl-2-oxo-3-pyridyl)amino]-2-[4-(trifluoromethoxy)phenyl]phthalazin-1-one] was tested. Which IC50 did it give?
Answer: 79 nM

Question: For C=Cc1ccc2c(=O)n(-c3ccc(OC(F)(F)F)cc3)nc(Nc3cccn(C)c3=O)c2c1 [Example 83, 4-[(1-methyl-2-oxo-3-pyridyl)amino]-2-[4-(trifluoromethoxy)phenyl]-6-vinyl-phthalazin-1-one], which IC50 is on record?
Answer: 1490 nM

Question: C=Cc1ccc2c(Nc3cccn(C)c3=O)nn(-c3ccc(OC(F)(F)F)cc3)c(=O)c2c1 [Example 84, 4-[(1-methyl-2-oxo-3-pyridyl)amino]-2-[4-(trifluoromethoxy)phenyl]-7-vinyl-phthalazin-1-one] was tested. Which IC50 did it give?
Answer: 176 nM

Question: Which IC50 does the source give for CCn1cncc(Nc2nn(-c3ccc(OC(F)(F)F)cc3)c(=O)c3c2CCN(C(C)=O)C3)c1=O [Example 85, 6-acetyl-1-[(1-ethyl-6-oxo-pyrimidin-5-yl)amino]-3-[4-(trifluoromethoxy)phenyl]-7,8-dihydro-5H-pyrido[3,4-d]pyridazin-4-one] here?
Answer: 56 nM

Question: For CCCn1cncc(Nc2nn(-c3ccc(OC(F)(F)F)cc3)c(=O)c3c2CCN(C(C)=O)C3)c1=O [Example 86, 6-acetyl-1-[(6-oxo-1-propyl-pyrimidin-5-yl)amino]-3-[4-(trifluoromethoxy)phenyl]-7,8-dihydro-5H-pyrido[3,4-d]pyridazin-4-one], which IC50 is on record?
Answer: 34 nM

Question: Which IC50 does the source give for CC(=O)N1CCc2c(Nc3cc(F)cn(C)c3=O)nn(-c3ccc(OC(F)(F)F)cc3)c(=O)c2C1 [Example 87, 6-acetyl-1-[(5-fluoro-1-methyl-2-oxo-3-pyridyl)amino]-3-[4-(trifluoromethoxy)phenyl]-7,8-dihydro-5H-pyrido[3,4-d]pyridazin-4-one] here?
Answer: 17 nM

Question: For O=C(Cn1cccc(Nc2nn(-c3ccc(OC(F)(F)F)cc3)c(=O)c3ccccc23)c1=O)N1CCOCC1 [Example 88, 4-[[1-(2-Morpholino-2-oxo-ethyl)-2-oxo-3-pyridyl]amino]-2-[4-(trifluoromethoxy)phenyl]phthalazin-1-one], which IC50 is on record?
Answer: 23 nM

Question: Which IC50 does the source give for CN(C)C(=O)Cn1cccc(Nc2nn(-c3ccc(OC(F)(F)F)cc3)c(=O)c3ccccc23)c1=O [Example 89, N,N-dimethyl-2-[2-oxo-3-[[4-oxo-3-[4-(trifluoromethoxy)phenyl]phthalazin-1-yl]amino]-1-pyridyl]acetamide] here?
Answer: 38 nM

Question: How did the IC50 turn out when CC(C)NC(=O)Cn1cccc(Nc2nn(-c3ccc(OC(F)(F)F)cc3)c(=O)c3ccccc23)c1=O [Example 90, N-isopropyl-2-[2-oxo-3-[[4-oxo-3-[4-(trifluoromethoxy)phenyl]phthalazin-1-yl]amino]-1-pyridyl]acetamide] was run?
Answer: 162 nM

Question: How did the IC50 turn out when CNC(=O)Cn1cccc(Nc2nn(-c3ccc(OC(F)(F)F)cc3)c(=O)c3ccccc23)c1=O [Example 91, N-methyl-2-[2-oxo-3-[[4-oxo-3-[4-(trifluoromethoxy)phenyl]phthalazin-1-yl]amino]-1-pyridyl]acetamide] was run?
Answer: 41 nM

Question: Which IC50 does the source give for O=C(Cn1cccc(Nc2nn(-c3ccc(OC(F)(F)F)cc3)c(=O)c3ccccc23)c1=O)NCCO [Example 92, N-(2-hydroxyethyl)-2-[2-oxo-3-[[4-oxo-3-[4-(trifluoromethoxy)phenyl]phthalazin-1-yl]amino]-1-pyridyl]acetamide] here?
Answer: 178 nM

Question: For CN(C)CCNC(=O)Cn1cccc(Nc2nn(-c3ccc(OC(F)(F)F)cc3)c(=O)c3ccccc23)c1=O [Example 93, N-[2-(dimethylamino)ethyl]-2-[2-oxo-3-[[4-oxo-3-[4-(trifluoromethoxy)phenyl]phthalazin-1-yl]amino]-1-pyridyl]acetamide], which IC50 is on record?
Answer: 166 nM

Question: For COCCCNC(=O)Cn1cccc(Nc2nn(-c3ccc(OC(F)(F)F)cc3)c(=O)c3ccccc23)c1=O [Example 94, N-(3-methoxypropyl)-2-[2-oxo-3-[[4-oxo-3-[4-(trifluoromethoxy)phenyl]phthalazin-1-yl]amino]-1-pyridyl]acetamide], which IC50 is on record?
Answer: 45 nM

Question: How did the IC50 turn out when CNC(=O)CCn1cccc(Nc2nn(-c3ccc(OC(F)(F)F)cc3)c(=O)c3ccccc23)c1=O [Example 95, N-methyl-3-[2-oxo-3-[[4-oxo-3-[4-(trifluoromethoxy)phenyl]phthalazin-1-yl]amino]-1-pyridyl]propanamide] was run?
Answer: 102 nM

Question: Which IC50 does the source give for CN(C)C(=O)CCn1cccc(Nc2nn(-c3ccc(OC(F)(F)F)cc3)c(=O)c3ccccc23)c1=O [Example 96, N,N-dimethyl-3-[2-oxo-3-[[4-oxo-3-[4-(trifluoromethoxy)phenyl]phthalazin-1-yl]amino]-1-pyridyl]propanamide] here?
Answer: 42 nM

Question: With CNC(=O)CCCn1cccc(Nc2nn(-c3ccc(OC(F)(F)F)cc3)c(=O)c3ccccc23)c1=O [Example 97, N-methyl-4-[2-oxo-3-[[4-oxo-3-[4-(trifluoromethoxy)phenyl]phthalazin-1-yl]amino]-1-pyridyl]butanamide] as the compound, how does the IC50 read?
Answer: 9 nM

Question: How did the IC50 turn out when CN(C)C(=O)CCCn1cccc(Nc2nn(-c3ccc(OC(F)(F)F)cc3)c(=O)c3ccccc23)c1=O [Example 98, N,N-dimethyl-4-[2-oxo-3-[[4-oxo-3-[4-(trifluoromethoxy)phenyl]phthalazin-1-yl]amino]-1-pyridyl]butanamide] was run?
Answer: 10 nM

Question: Which IC50 does the source give for CNC(=O)C(C)(C)Cn1cccc(Nc2nn(-c3ccc(OC(F)(F)F)cc3)c(=O)c3ccccc23)c1=O [Example 99, N,2,2-trimethyl-3-[2-oxo-3-[[4-oxo-3-[4-(trifluoromethoxy)phenyl]phthalazin-1-yl]amino]-1-pyridyl]propanamide] here?
Answer: 291 nM

Question: For CN(C)C(=O)C(C)(C)Cn1cccc(Nc2nn(-c3ccc(OC(F)(F)F)cc3)c(=O)c3ccccc23)c1=O [Example 100, N,N,2,2-tetramethyl-3-[2-oxo-3-[[4-oxo-3-[4-(trifluoromethoxy)phenyl]phthalazin-1-yl]amino]-1-pyridyl]propanamide], which IC50 is on record?
Answer: 36 nM

Question: For CC(C)(Cn1cccc(Nc2nn(-c3ccc(OC(F)(F)F)cc3)c(=O)c3ccccc23)c1=O)C(N)=O [Example 101, 2,2-dimethyl-3-[2-oxo-3-[[4-oxo-3-[4-(trifluoromethoxy)phenyl]phthalazin-1-yl]amino]-1-pyridyl]propanamide], which IC50 is on record?
Answer: 109 nM
